Measured values from patent US7407990B2, “Therapeutic Agents” (Knoll GmbH, priority 1999, dated 2008).

System: male rhesus monkeys (Macaca mulatta)
Test: Cocaine discrimination testing (Study 1), pretreatment protocol
Format: in vivo
Conditions: cocaine alone
Procedure: Subjects: The subjects are four male rhesus monkeys (Macaca mulatta), weighing 5.7-8.1 kg and maintained on a diet of 3-4 monkey biscuits and one piece of fresh fruit per day. During the week, all food is delivered after the experimental session, whereas at weekends, food is delivered between 9 a.m. and noon. Water is freely available at all times. The monkeys are housed in a humidity and temperature controlled room with a 12 h light-dark cycle (lights on from 7 a.m. to 7 p.m.). Apparatus: Each monkey is housed individually in a well-ventilated, stainless steel chamber (56×71×69 cm) which includes an operant panel (28×28 cm) mounted on the front wall. Three response keys are arranged in a horizontal row 3.2 cm from the top of the operant panel. Each key can be transilluminated by red or green stimulus lights (Superbright LEDs). An externally mounted pellet dispenser delivers 1 g fruit-flavoured food pellets to a food receptacle beneath the operant response panel. A computer, located in a separate room, controls the operant panels and data collection. […]
During each response period, 3 dependent variables are determined: • 1) Percent injection-appropriate responding prior to delivery of the first reinforcer. • 2) Percent injection-appropriate responding for the entire response period • 3) Response Rate.
Monkeys meeting the following criteria during the training day immediately proceeding the test day and in at least 6 of 7 consecutive training sessions before this are used for discrimination testing: • 1) the percent injection-appropriate responding prior to delivery of the first reinforcer is ≧80% for all cycles; • 2) the percent injection-appropriate responding for the entire cycle is ≧90% for all cycles; • 3) Response rates during saline training cycles are >0.5 responses per second. […] In this protocol, a cumulative dose-effect curve for cocaine (0.013-1.3 mg/kg) is determined either alone or following pretreatment with the test compound, which is administered 20 min before the first dose of cocaine. […]

Compound: COC(=O)[C@H]1[C@@H](OC(=O)c2ccccc2)C[C@@H]2CC[C@H]1N2C.Cl [cocaine, Cocaine hydrochloride]
- response rates (1.3 mg/kg): usually decreases response rates
- cocaine-appropriate responding (cumulative 0.013-1.3 mg/kg, all four monkeys): dose-dependent increase in cocaine-appropriate responding
- substitution for training stimulus (training dose 0.4 mg/kg, all monkeys): Complete substitution
